How the values were obtained:
[1] = test system: 13.5 dpc fetal mouse pancreas cells; assay: Low cell density serum-free culture of 13.5 dpc fetal mouse pancreatic cells: total and insulin-positive β cell number; format: cell-based; details: for laminin-1 induced/mediated β cell differentiation: with laminin-1, four days
Protocol: (§1) Dissociated fetal pancreas cells were prepared from 13.5 dpc CBA mice. Pregnant mice at 13.5 dpc were killed by cervical dislocation and fetuses collected into ice cold sterile mouse tonicity phosphate-buffered saline (MTPBS). Fetal pancreata were harvested under an Olympus dissection microscope into RPMI 1640 medium and dissociated in a shaking water bath at 37° C. for 11 mins in Ca^2+/Mg^2+-free PBS containing 0.5% v/v trypsin/EDTA as described for testis by Bucci et al. (1986). After dissociation, trypsin was inactivated by addition of 8% w/v bovine serum albumin (BSA, fraction V) (Sigma, St. Louis, USA). The tissue was aspirated several times in a pipette, passed through a 27 gauge needle to make a single cell suspension and then rinsed in 10 μg/ml DNAse I (Promega, Madison, USA) in RPMI 1640 for 10 mins to reduce cellular aggregates. Cell suspensions were filtered through a 70-100 μm steel mesh, centrifuged at 400×g for 5 mins and the supernatant discarded. The cell pellet was resuspended in HYBRIDOMA medium and stored on ice. Cells were counted under a haemocytometer and viability was determined by exclusion of 0.2% v/v trypan blue dye. Pancreatic cells were plated in 8 chamber slides (Nunc) at 1.5×10^4 cells/well in 0.3 ml HYBRIDOMA medium 500 UI/ml penicillin and 500 μg/ml streptomycin. The cells were cultured in 10% v/v CO2, 90% v/v air at 37° C. with 100% humidity for four days in the presence of factors such as laminin-1 and BMPs.
Fetuses at 15.5 and 18.5 dpc from homozygous (−/−) or heterozygous (+/−) α6 integrin gene targeted (Georges-Labouesse et al., 1996) or wild type mice were fixed overnight in Bouin ? s solution. After standard dehydration processing, fetuses were embedded into paraffin and sectioned at 7 μm. Cultured pancreatic cells were washed three times with warm mouse tonicity phosphate buffered saline (MT-PBS) and fixed with 4% paraformaldehyde (PFA) for 10 mins. Endogenous peroxidase was blocked by 3% v/v H2O2 in methanol for 8 mins. Prior to antibody staining, non-specific protein binding was blocked by incubation for at least 30 mins with MT-PBS containing 2% w/v bovine serum albumin or 2% v/v normal rabbit serum. Controls were performed by replacing first antibody with pre-immune serum from the appropriate species. Cell were incubated with primary antibodies for 90 mins at room temperature, followed by three thorough washes with MT-PBS. Horseradish peroxidase-conjugated rabbit anti-guinea pig or swine anti-rabbit immunoglobulins (Dako) were added for 30 mins at room temperature followed by thorough washes. Immunoperoxidase was detected with 3,3′-diamninobenzidine/H2O2 for 4-8 mins, and slides were counterstained with haematoxylin.
Immunoperoxidase positive and negative cells were quantitated in the central strip of each culture chamber (a 90×90 mm square) under a microscope equipped with an eyepiece graticule (Olympus, Japan) at ×40 power and calibrated with a micrometer (Olympus). All data are presented as mean±s.e.m of at least three independent experiments.

[2] = test system: 13.5 dpc fetal mouse pancreas cells; assay: Colony formation of 13.5 dpc fetal mouse pancreas cells cultured with BMPs and laminin-1; format: cell-based; details: 13.5 dpc fetal pancreas cells
Protocol: as §1
(§2) After four days in culture, cells were washed twice with warm MT-PBS and fixed with a 4% v/v paraformaldehye for 10 mins. In some cases, 100 μM BrdU was added to label proliferating cells 12 hours before fixation and detection with monoclonal antibody to BrdU and FITC-labelled rabbit anti-mouse immunoglobulin. For immunoperoxidase staining, endogenous peroxidase was blocked by 3% v/v H2O2 in methanol for 8 mins and, prior to addition of primary antibody, non-specific protein binding was blocked by incubation for at least 30 mins in MTPBS containing 2% w/v BSA or 2% v/v normal rabbit serum. Controls were performed by replacing primary antibody with pre-immune serum from the appropriate species. Tissue sections or cells were incubated with primary antibodies for 90 min RT, followed by three thorough washes with MTPBS. For immunoperoxidase staining, horseradish peroxidase-conjugated rabbit anti-guinea pig, swine anti-rabbit or rabbit anti-mouse immunoglobulins (Dako) diluted 1:80 were added for 30 mins at RT followed by thorough washes; colour was developed with 3,3′-diaminobenzidine/H2O2 for 4-8 mins and slides counterstained with haematoxylin.
A pancreatic cell colony was defined as a spherical collection of 20 cells. Colonies were counted under a×10 power objective with an eyepiece graticule.

α6 integrin and α-DG = assay: Indirect immunofluorescence for α6 integrin and α-DG expression in cultured fetal pancreas cells; format: cell-based, mouse; details: day 2 (laminin-1 alone: day 2 and four)
Protocol: In some cultures, 100 μM BrdU (Sigma) was included to label proliferating cells; cells were fixed by 4% PFA at days 1, 2, 3 and 4 for insulin and BrdU double immunofluorescence staining. Fetuses were directly snap-frozen in liquid nitrogen, section at 8 μm, the sections air-dried for 40-60 mins and fixed in cold (−20° C.) acetone for 10 mins. Pre-treatment and primary antibody incubations were as described above, followed by incubation with Texas Red-conjugated goat anti-guinea pig immunoglobulins (Vector Laboratories, Burlingame, USA) or fluorescein isothiocyanate (FITC)-conjugated rabbit anti-mouse, -rat or -goat or swine anti-rabbit immunoglobulins (Dako) for 30 mins at room temperature and three thorough washes. Slides were observed and photomicrographed under a Zeis Axiopot fluorescence microscope.

[3] = test system: 13.5 dpc fetal mouse pancreas cells; assay: BrdU labelling of proliferating cells in 13.5 dpc fetal mouse pancreas cell culture; format: cell-based; details: 100 μM BrdU, laminin-1 (200 μg/ml), with or without GoH3, days 1-4
Protocol: as §2, with “For immunoperoxidase staining, horseradish peroxidase-conjugated rabbit anti-guinea pig, swine anti-rabbit or rabbit anti-mouse immunoglobulins (Dako) diluted 1:80 were added for 30 mins at RT followed by thorough washes; colour was developed with 3,3′-diaminobenzidine/H2O2 for 4-8 mins and slides counterstained with haematoxylin.” left out
In some cultures, 100 μM BrdU (Sigma) was included to label proliferating cells; cells were fixed by 4% PFA at days 1, 2, 3 and 4 for insulin and BrdU double immunofluorescence staining. […] Slides were observed and photomicrographed under a Zeis Axiopot fluorescence microscope.

[4] = test system: E15.5 CBA mouse fetal pancreas cells; assay: Cystic colony formation of E15.5 fetal mouse pancreas cells in laminin-1 overlay culture; format: cell-based
Protocol: Pancreata were dissected from embryonic day (E)15.5 CBA mouse fetuses and dissociated into single cells as described (Jiang et al., 1999). Briefly, dissected pancreas was digested with trypsin/EDTA for 15 minutes at 37° C. in a shaking water bath. Cells were counted in a haemocytometer and viability determined by trypan blue dye exclusion. Each fetal pancreas yielded 50,000 viable cells (48,509±11,299, n=14). Dissociated cells were plated in 8 well chamber slides (Nunc, Naperville, USA) at 7.5×10^4 cells/well in 0.3 ml AIM V medium supplemented with N-2 (1:100, Gibco BRL Life Technologies, Gaithersburg, USA), 500 UI/ml penicillin and 500 μg/ml streptomycin. Laminin-1 (160 μg/ml), purified from murine Engelbreth-Holm-Swarm tumor basement membrane (Becton Dickinson Labware, Bedford, USA), was overlayed on cells in the presence of various growth factors. Cultures were incubated in 10% CO2 90% air at 37° C., for up to 6 days. Recombinant human BMP 6 and BMP 5, recombinant human TGF-β1 and recombinant activin A were purchased from R&D Systems (Minneapolis, USA). These factors, dissolved at a concentration of 10 ng/μl in mouse tonicity phosphate buffered saline (PBS) containing 0.1% w/v bovine serum albumin (BSA), were added at the start of culture. Phase contrast images of colonies were photographed with Olympus IX70 digitized camera.
Colony formation was assessed at day 6 of culture. A colony was defined as a cellular sphere ≧30 μm in diameter, which contained more than 20 cells. The number of colonies per well was counted directly under a inverted microscope at ×10. Colony counts were performed using a blind design.

O=c1c(-c2ccc(O)cc2)coc2cc(O)cc(O)c12 [genistein]
laminin-1 induced/mediated β cell differentiation [1]: did not affect

gastrin
proliferation or colony formation, candidate growth factors individually [2]: unable to promote proliferation or colony formation

C=C1[C@@H](C)[C@H]2[C@H](Cc3ccccc3)NC(=O)[C@]23[C@H](OC(C)=O)/C=C/[C@@](C)(O)C(=O)[C@@H](C)C/C=C/[C@H]3[C@@H]1O [Cytochalasin D]
laminin-1 induced/mediated β cell differentiation [1]: increased

HGF: candidate growth factor
proliferation or colony formation, candidate growth factors individually [2]: unable to promote proliferation or colony formation

COc1cccc(-c2cc(=O)c3ccccc3o2)c1N [PD98059]
laminin-1 induced/mediated β cell differentiation [1]: increased

fibronectin
inhibition of pancreatic / β cell survival ([1]; four days culture, compared to medium alone): no effect

EGF: candidate growth factor (NSDSECPLSHDGYCLHDGVCMYIEALDKYACNCVVGYIGERCQYRDLKWWELR; Epidermal growth factor; UniProt P01133 971-1023, looked up)
proliferation or colony formation, candidate growth factors individually [2]: unable to promote proliferation or colony formation

heparin
effect on the GoH3-induced increase in β cell differentiation ([1]; heparin at 100 μM, laminin-1 plus GoH3): blocked the effect of α6 integrin antibody GoH3 | number of total and β cells ([1]; with laminin-1, heparin at 100 μM, p<0.05): significantly decreased

laminin-1: heterotrimeric matrix glycoprotein prepared from murine Englebreth-Holm-Swarm tumour cell basement membrane
proportion of cells positive for both α6 integrin and α-DG (α6 integrin and α-DG): approximately 10% | BrdU-positive cells [3]: 2.5% | glucagon-positive cell number ([1]; in the presence of soluble laminin-1): unchanged | total cell number per well ([1]; laminin-1 without or with 40 μg/ml GoH3, mean±s.e.m): 4016±650 | β cell number per well ([1]; laminin-1 without or with 40 μg/ml GoH3, mean±s.e.m n=3): 2265±240 | increase in number of insulin-positive β cells ([1]; soluble laminin-1, four days culture): 60 fold

PYY: candidate growth factor
proliferation or colony formation, candidate growth factors individually [2]: unable to promote proliferation or colony formation

TGF-β1: recombinant human TGF-β1 from R&D Systems
BMP 6-induced colony formation ([4]; 100 ng/ml against BMP 6 10 ng/ml, laminin-1 160 μg/ml, p<0.01 (FIG. 10B)): antagonized | colony formation relative to laminin-1 alone ([4]; 100 ng/ml, laminin-1 160 μg/ml (FIG. 10A)): suppressed colony formation to levels below that observed with laminin-1 alone | potency of inhibition of BMP 6-induced colony numbers relative to Activin A ([4]; dose-dependency of inhibition, BMP 6 10 ng/ml (FIG. 10C)): 100 fold

CO[C@H]1[C@@H](OC)C[C@H](C)[C@@H](OC)C2=CC(=O)C=C(NC(=O)/C(C)=C/C=C\[C@H](OC)[C@@H](OC(N)=O)/C(C)=C/[C@@H]1C)C2=O [herbimycin A]
laminin-1 induced/mediated β cell differentiation [1]: did not affect
